“And” between values parts separate entries of the source, which are not always exact repeats. Identical values can stand only once. Square brackets hold non-standard residues; d marks the D form. Ends that are not written are not given here. Peptide text beside a SMILES is read from it. Nle = CCCC[C@H](N)C(=O)O Where only a bound is given, the exact number is not on record here.

As a reminder, the IC50 is the concentration at which inhibition is half-maximal.

In the first assay the target is T1, E-selectin (Homo sapiens, UniProt P16581).
T1 sequence (P16581 22-554): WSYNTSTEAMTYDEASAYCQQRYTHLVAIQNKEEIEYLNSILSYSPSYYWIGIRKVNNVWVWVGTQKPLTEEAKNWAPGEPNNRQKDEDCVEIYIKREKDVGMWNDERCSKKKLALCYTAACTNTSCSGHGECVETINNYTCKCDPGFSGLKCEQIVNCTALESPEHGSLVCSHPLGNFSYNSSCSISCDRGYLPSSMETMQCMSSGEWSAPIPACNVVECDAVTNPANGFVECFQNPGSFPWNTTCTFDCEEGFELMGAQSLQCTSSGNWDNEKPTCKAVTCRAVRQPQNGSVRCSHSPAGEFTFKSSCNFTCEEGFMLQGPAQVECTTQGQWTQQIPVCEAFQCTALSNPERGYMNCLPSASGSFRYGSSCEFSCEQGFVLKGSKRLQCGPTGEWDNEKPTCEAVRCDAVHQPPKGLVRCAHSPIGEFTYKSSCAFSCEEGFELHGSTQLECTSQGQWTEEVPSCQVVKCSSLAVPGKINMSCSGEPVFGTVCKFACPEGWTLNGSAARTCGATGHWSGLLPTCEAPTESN
The experiment in a line: HL60 cell adhesion assay (labeled HL60 cells adhering to immobilized E-selectin). To be noted: concentration reducing by 50% the binding of HL60 cells to immobilized E-selectin. It is filed as cell-based. Further details: truncated form comprising the complete extracellular domain (amino acids 1 through 554); made in house. The protocol:
By comparing test wells with control wells (no receptor), one can determine whether a peptide binds to E-selectin specifically. […] In this regard, HL60 cells are known to contain surface glycoconjugates which bind to E-selectin.
Peptides that block the binding of labeled HL60 cells to E-selectin are then evaluated to determine their IC50 -HL60 in the manner also specified in Example 1.
The assay requires HL60 cells labeled with tritiated thymidine. To label the cells, about 10 million HL60 cells are collected by centrifugation (2500 RPM for 3 minutes) and resuspended in 15 mL of DMEM/F12 plus 5% fetal calf serum containing 2 μCi/mL of tritiated thymidine (Amersham). The cells are then placed in a T75 flask and incubated at 37° C. for 24 hours. The cells are then collected by centrifugation, washed twice with RPMI/HEPES/0.1% FCS, and resuspended in the same solution at a concentration of about one to two million cells per mL. About 100 μL of this cell preparation are used per well of a 96-well microtiter dish in the assay.
The wells of the microtiter dish were first coated with the anti-receptor immobilizing antibody, an anti-HPAP-tail antibody, using about 2.5 μg of antibody per well. […]
After the test compound incubation period, 100 μL of labeled HL60 cells were added to each well, and the microtiter plate was incubated at 4° C. for 30 minutes. […] After this incubation, aliquots were removed from each well and placed in scintillation vials; scintillation fluid was added to each vial; and the radioactivity in each aliquot was quantitated by liquid scintillation counting. […]
The concentration of any peptide or peptide mimetic required to reduce by 50% the binding of HL60 cells to E-selectin as per the assay of Example 1 is determined by the following procedure. […] (SEQ ID NO 23), was determined. […]
On to DITWDQLWDLMK, for which the IC50 was < 10000 nM and 10000 nM.

As to HITWDQLWNVMN, the IC50 was 50000 nM and 100000 nM and ~50000 nM.

Staying with this assay, now noted: peptide at 200 μM, FIG. 1.
Take HITWDQLWNVMN: the “blocking of HL60 cell binding that occurred in the absence of added compound” value was “over 80%”.

A further assay has as its target T1, E-selectin. The experiment in a line: IC50-standard competitive binding assay (radiolabeled standard peptide on immobilized E-selectin). Further details: truncated form comprising the complete extracellular domain (amino acids 1 through 554); made in house; a baculovirus soluble form is also mentioned as an option. Conditions: inhibits 50% of binding of radiolabeled standard […] to E-selectin. The source says: This latter peptide has strong binding affinity to E-selectin and, accordingly, was used as a standard in a competitive binding assay with candidate peptides and peptide mimetics in order to determine relative binding affinities for E-selectin.
This example measures the concentration of peptide or peptide mimetic required to inhibit 50% of the binding of a radiolabeled standard to E-selectin and the resulting IC50 value is referred to as the "IC50 -standard". In this example, the standard corresponds to the synthetic peptide […] (SEQ ID NO 114) which comprises a known initial seven amino acid group which is a substrate for protein kinase A followed by a 2 amino acid spacer and a 12 amino acid sequence which corresponds to the peptide identified by SEQ ID NO 3 which has an IC50 -HL60 of 10 μM. The peptide is radiolabeled by phosphorylation using either […] or ^33 P phosphate by conventional methods via the protein kinase A. The example is a competitive assay in which 6.5 picograms at 1400 Ci/mmol (65000 cpm) of radiolabelled standard (1400 Ci/mmol) is combined with a titered amount of candidate peptide or peptide mimetic in a constant volume of 30 μL. The combined solution is then added to E-selectin immobilized onto a solid surface in the manner described above. The resulting mixture is then incubated for about 120 minutes to permit equilibrium binding to be achieved. Afterwards, unbound materials are separated from bound materials by conventional methods (e.g., washing) and the amount of the […] bound to E-selectin is determined by scintillation counting. The assay is repeated over several concentrations of candidate peptide or peptide mimetic and the results are entered into a graph whose y axis is the amount of radiolabeled standard bound to E-selectin (measured in cpm) and the x axis is the amount of candidate peptide or peptide mimetic. The results are graphically extrapolated to determine the concentration at which the peptide or peptide mimetic will reduce by 50% the amount of radiolabeled standard bound to E-selectin. This concentration is taken as the IC50 -standard for that peptide or peptide mimetic.
The compound DYSWHDLWEMMS yielded an IC50 of 16 nM. On the same count and under the same terms, with `CC[C@H](C)[C@H](NC(=O)[C@@H](N)CC(=O)O)C(=O)N[C@@H](C(=O)N[C@@H](Cc1c[nH]c2ccccc12)C(=O)N[C@@H](CC(=O)O)C(=O)N[C@@H](CCC(N)=O)C(=O)N[C@@H](CC(C)C)C(=O)N[C@@H](Cc1c[nH]c2ccccc12)C(=O)N[C@@H](CC(=O)O)C(=O)N[C@@H](CC(C)C)C(=O)N[C@@H](CCSC)C(=O)N[C@@H](CCCCN)C(=O)O)[C@H](C)O` (H-DI[dT]WDQLWDLMK-OH) the figure was 2700 nM. AEKWDQLWHVMNPAESQ gave an IC50 of 65 nM. On the same count and under the same terms, as for DYTWFELWDMMQ, the figure is 6 nM; as for `CC[C@H](C)[C@H](NC(=O)[C@@H](N)CC(=O)O)C(=O)N[C@H](C(=O)N[C@@H](Cc1c[nH]c2ccccc12)C(=O)N[C@H](CC(=O)O)C(=O)N[C@@H](CCC(N)=O)C(=O)N[C@@H](CC(C)C)C(=O)N[C@@H](Cc1c[nH]c2ccccc12)C(=O)N[C@@H](CC(=O)O)C(=O)N[C@@H](CC(C)C)C(=O)N[C@@H](CCSC)C(=O)N[C@@H](CCCCN)C(=O)O)[C@@H](C)O` (H-DITW[dD]QLWDLMK-OH), 34 nM; as for `CC[C@H](C)[C@H](NC(=O)[C@H](N)CC(=O)O)C(=O)N[C@H](C(=O)N[C@@H](Cc1c[nH]c2ccccc12)C(=O)N[C@@H](CC(=O)O)C(=O)N[C@@H](CCC(N)=O)C(=O)N[C@@H](CC(C)C)C(=O)N[C@@H](Cc1c[nH]c2ccccc12)C(=O)N[C@@H](CC(=O)O)C(=O)N[C@@H](CC(C)C)C(=O)N[C@@H](CCSC)C(=O)N[C@@H](CCCCN)C(=O)O)[C@@H](C)O` (H-[dD]ITWDQLWDLMK-OH), 25 nM. On the same count and under the same terms, with QITWAQLWNMMK the figure was 12 nM; with `CCCC[C@H](NC(=O)[C@H](CCCC)NC(=O)[C@H](CC(N)=O)NC(=O)[C@H](Cc1c[nH]c2ccccc12)NC(=O)[C@H](CC(C)C)NC(=O)[C@H](CCC(N)=O)NC(=O)[C@H](C)NC(=O)[C@H](Cc1c[nH]c2ccccc12)NC(=O)[C@@H](NC(=O)[C@@H](NC(=O)[C@@H](N)CC(=O)O)[C@@H](C)CC)[C@@H](C)O)C(=O)N[C@@H](CC(N)=O)C(=O)O` (H-DITWAQLWN[Nle][Nle]N-OH), 425 nM.

`CCCC[C@H](NC(=O)[C@H](CC(C)C)NC(=O)[C@H](CC(=O)O)NC(=O)[C@H](Cc1c[nH]c2ccccc12)NC(=O)[C@H](CC(C)C)NC(=O)[C@H](CCC(N)=O)NC(=O)[C@H](CC(=O)O)NC(=O)[C@H](Cc1c[nH]c2ccccc12)NC(=O)[C@@H](NC(=O)[C@@H](NC(=O)[C@@H](N)CC(=O)O)[C@@H](C)CC)[C@@H](C)O)C(=O)N[C@@H](CCCCN)C(=O)O` (H-DITWDQLWDL[Nle]K-OH) displayed a concentration for half-maximal inhibition (IC50) of 23 nM. Same read-out and setting: with `CCCC[C@H](NC(=O)[C@H](CC(C)C)NC(=O)[C@H](CC(=O)O)NC(=O)[C@H](Cc1c[nH]c2ccccc12)NC(=O)[C@H](CC(C)C)NC(=O)[C@H](CCC(N)=O)NC(=O)[C@H](CC(=O)O)NC(=O)[C@H](Cc1c[nH]c2ccccc12)NC(=O)[C@@H](NC(=O)[C@@H](NC(=O)[C@@H](N)CCC(N)=O)[C@@H](C)CC)[C@@H](C)O)C(=O)N[C@@H](CCCCN)C(=O)O` (H-QITWDQLWDL[Nle]K-OH) the figure was 65 nM; with `CC[C@@H](C)[C@@H](NC(=O)[C@@H](N)CC(=O)O)C(=O)N[C@H](C(=O)N[C@@H](Cc1c[nH]c2ccccc12)C(=O)N[C@@H](CC(=O)O)C(=O)N[C@@H](CCC(N)=O)C(=O)N[C@@H](CC(C)C)C(=O)N[C@@H](Cc1c[nH]c2ccccc12)C(=O)N[C@@H](CC(=O)O)C(=O)N[C@@H](CC(C)C)C(=O)N[C@@H](CCSC)C(=O)N[C@@H](CCCCN)C(=O)O)[C@@H](C)O` (H-D[dI]TWDQLWDLMK-OH), 27 nM.

The compound DITWDELWKIMN registered an IC50 of 7 nM. As for HITWDQLWRIMT, the IC50 was found to be 28 nM. Regarding `CCCC[C@H](NC(=O)[C@H](CC(C)C)NC(=O)[C@H](CC(=O)O)NC(=O)[C@H](Cc1c[nH]c2ccccc12)NC(=O)[C@H](CC(C)C)NC(=O)[C@H](CCC(N)=O)NC(=O)[C@H](CC(=O)O)NC(=O)[C@H](Cc1c[nH]c2ccccc12)NC(=O)[C@@H](NC(=O)[C@@H](NC(=O)[C@H](CC(=O)O)NC(=O)CNC(=O)[C@@H](N)CC(=O)O)[C@@H](C)CC)[C@@H](C)O)C(=O)N[C@@H](CCCCN)C(=O)O` (H-DGDITWDQLWDL[Nle]K-OH), the half-inhibitory concentration (IC50) was determined as 42 nM. This IC50 lies about 1.5-fold higher than the previous one. The same measure, in the same setting: as for DITWDQLWDLMK, the figure is 3 nM; as for `CC[C@H](C)[C@H](NC(=O)[C@@H](N)CC(=O)O)C(=O)N[C@H](C(=O)N[C@@H](Cc1c[nH]c2ccccc12)C(=O)N[C@@H](CC(=O)O)C(=O)N[C@@H](CCC(N)=O)C(=O)N[C@@H](CC(C)C)C(=O)N[C@@H](Cc1c[nH]c2ccccc12)C(=O)N[C@@H](CC(=O)O)C(=O)N[C@H](CC(C)C)C(=O)N[C@@H](CCSC)C(=O)N[C@@H](CCCCN)C(=O)O)[C@@H](C)O` (H-DITWDQLWD[dL]MK-OH), 33000 nM; as for DGDITWDQLWDLMK, 4 nM. The compound `CC[C@H](C)[C@H](NC(=O)[C@@H](N)CC(=O)O)C(=O)N[C@H](C(=O)N[C@@H](Cc1c[nH]c2ccccc12)C(=O)N[C@@H](CC(=O)O)C(=O)N[C@@H](CCC(N)=O)C(=O)N[C@@H](CC(C)C)C(=O)N[C@@H](Cc1c[nH]c2ccccc12)C(=O)N[C@@H](CC(=O)O)C(=O)N[C@@H](CC(C)C)C(=O)N[C@@H](CCSC)C(=O)N[C@H](CCCCN)C(=O)O)[C@@H](C)O` (H-DITWDQLWDLM[dK]-OH) returned an IC50 of 1000 nM. Still for that read-out and setting: as for RNMSWLELWEHMK, the figure is 35 nM; as for DITWDQLWDLMK-NH2, 22 nM.

Still in this assay, the particulars now being: inhibits 50% of binding of radiolabeled standard to E-selectin.
In turn, TWDQLWDLMK yielded a half-inhibitory concentration (IC50) of 12000 nM.

ITWDQLWDLMK yielded an IC50 of 11 nM.
